Measured values from patent US6664286B1, “Serotonergic 5ht2 agonists for treating glaucoma” (Alcon Manufacturing, Ltd., priority 1998, dated 2003).
Where two headings read alike, the source gives them in different places.

How the values were obtained:
[1] = test system: lasered (hypertensive) eyes of conscious cynomolgus monkeys; assay: Acute IOP Response in Lasered (Hypertensive) Eyes of Conscious Cynomolgus Monkeys; type: in vivo, cynomolgus monkey; conditions: topical, one 30 μL aliquot, dose (R)-DOI 100 μg, α-methylserotonin 250 μg, 5-methoxy-α-methyltryptamine 300 μg, serotonin 250 μg
Experimental: Acute IOP Response in Lasered (Hypertensive) Eyes of Conscious Cynomolgus Monkeys
Intraocular pressure (IOP) was determined with an Alcon Pneumatonometer after light corneal anesthesia with 0.1% proparacaine. Eyes were washed with saline after each measurement. After a baseline IOP measurement, test compound was instilled in one 30 μL aliquot to the right eyes only of nine cynomolgus monkeys. Vehicle was instilled in the right eyes of six additional animals. Subsequent IOP measurements were taken at 1, 3, and 6 hours.

5HT2 receptor = 5HT2 receptor (Rattus norvegicus, UniProt P14842); assay: cell-based
Experimental: Confluent cells are exposed for 24-30 hrs to 1.5 μCi [^3H]-myo-inositol (18.3 Ci/mmol) in 0.5 ml of serum-free medium. Cells are then rinsed once with DMEM/F-12 containing 10 mM LiCl prior to incubation with the test agent (or solvent as the control) in 1.0 ml of the same medium for 1 hr at 37° C., after which the medium is aspirated and 1 ml of cold 0.1 M formic acid added to stop the reaction. […] The eluate (4 ml) is collected, mixed with 15 ml scintillation fluid, and the total [^3H]-IPs determined by scintillation counting on a beta-counter.

rabbit eye = conditions: cited from earlier work
glaucomatous monkeys = conditions: cited from earlier work
[2] = man, dosed systemically; cited from earlier work
human subjects = conditions: cited from earlier work
5HT2 receptor subtypes = conditions: 5HT2 agonist, rank order of subtypes; cited from earlier work
[3] = rabbit, administered intracamerally

Sequence of 5HT2 receptor (P14842 whole entry): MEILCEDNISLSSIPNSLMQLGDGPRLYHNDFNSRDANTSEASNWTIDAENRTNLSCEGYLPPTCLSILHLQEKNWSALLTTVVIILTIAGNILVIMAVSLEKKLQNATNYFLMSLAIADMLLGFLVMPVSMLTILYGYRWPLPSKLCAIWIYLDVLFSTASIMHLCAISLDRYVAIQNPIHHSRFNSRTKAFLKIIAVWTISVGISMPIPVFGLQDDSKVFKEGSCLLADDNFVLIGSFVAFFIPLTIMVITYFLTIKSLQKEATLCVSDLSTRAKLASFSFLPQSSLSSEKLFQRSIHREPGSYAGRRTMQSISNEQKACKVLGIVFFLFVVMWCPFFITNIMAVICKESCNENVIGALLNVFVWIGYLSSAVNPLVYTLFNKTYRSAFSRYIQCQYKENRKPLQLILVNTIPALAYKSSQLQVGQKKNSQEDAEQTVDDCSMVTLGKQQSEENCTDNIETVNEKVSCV

SMILES | Percent IOP Reduction ± SEM, 1 hour after dose [1] [%] | Percent IOP Reduction ± SEM, 3 hours after dose [1] [%] | Percent IOP Reduction ± SEM, 6 hours after dose [1] [%] | effect on IOP (rabbit eye; rabbits, route not stated) | further results
COc1ccc2[nH]cc(CC(C)N)c2c1 (stereo not drawn) [5-Methoxy-α-methyltryptamine, 5-methoxy-α-methyltryptamine] | 21.6 ± 5.05 | 35.2 ± 6.12 | 33.4 ± 5.39 | – | Emax (5HT2 receptor; A7R5, read-out: Efficacy (Emax, %)): 107%
NCCc1c[nH]c2ccc(C(N)=O)cc12 [5-carboxamidotryptamine] | – | – | – | – | effect on intraocular pressure (IOP) (rabbit eye; rabbit, topically applied): raise intraocular pressure
COc1ccccc1N1CCN(CCCNc2c(C)c(=O)n(C)c(=O)n2C)CC1 [5-methylurapidil] | – | – | – | – | effect on IOP (glaucomatous monkeys): lowered IOP
CCCN(CCC)C1CCc2cccc(O)c2C1 (stereo not shown) [8-hydroxy DPAT] | – | – | – | lower IOP | –
COc1cc(C[C@@H](C)N)c(OC)cc1I [(R)-DOI, (R)4-iodo-2,5 dimethoxy-α-methyl-benzeneethanamine] | 11.0 ± 4.98 | 25.3 ± 2.97 | 34.4 ± 4.98 | – | EC50 (5HT2 receptor): 0.277 ± 0.035 µM
COc1cc(CC(C)N)c(OC)cc1I (stereo not shown) [DOI] | – | – | – | – | CNS side effects [2]: cause central nervous system (CNS) side effects
O=C(c1ccc(F)cc1)C1CCN(CCn2c(=O)[nH]c3ccccc3c2=O)CC1 [Ketanserin] | – | – | – | lowers IOP | effect on IOP (human subjects; man, route not stated): lowers IOP
c1ccc2c(c1)OC[C@H](CNCCCOc1ccc3c(c1)OCO3)O2 [MKC-242] | – | – | – | lower IOP | –
CC[C@@H](CO)NC(=O)[C@@H]1C=C2c3cccc4c3c(cn4C)C[C@H]2N(C)C1 [Methysergide] | – | – | – | lowered IOP | –
COc1cccc(CCc2ccccc2OCC(CN(C)C)OC(=O)CCC(=O)O)c1 (stereo not shown) [Saprogrelate] | – | – | – | – | effect on IOP (human subjects; man, dosed topically or orally): lowers IOP; effect on IOP (rabbit eye; rabbits, dosed topically or orally): lowers IOP
NCCc1c[nH]c2ccc(O)cc12 [Serotonin, 5-hydroxytryptamine] | 13.3 ± 5.31 | 18.0 ± 5.12 | 2.0 ± 7.39 | – | blood-aqueous barrier (rabbit eye; [3]): caused breakdown of the blood-aqueous barrier; effect on IOP (rabbit eye; [3]): increase in IOP
CNCCC(Oc1ccc(C(F)(F)F)cc1)c1ccccc1 (stereo not shown) [fluoxetine] | – | – | – | – | effect on IOP (human subjects; human subjects, oral administration): raises IOP
CC(N)Cc1c[nH]c2ccc(O)cc12 (stereo not drawn) [α-Methylserotonin, α-methyl-serotonin] | 14.2 ± 4.39 | 25.8 ± 5.16 | 30.8 ± 7.72 | – | receptor subtype selectivity (5HT2 receptor subtypes): 5HT2B>5HT2C>5HT2A
